Data as given in the NIST ThermoML archive (doi:10.1016/j.jct.2015.06.036).
Numbers after ± are expanded uncertainties.

Test: refractive index (Na D-line) (dimensionless); xn = mol fraction of the nth substance listed
Conditions: 101 kPa, Liquid, Standard Abbe refractometry

CCCCn1cc[n+](C)c1.F[B-](F)(F)F [1-butyl-3-methylimidazolium tetrafluoroborate] + CO
refractive index
Conditions | 288.15 K | 298.15 K | 308.15 K | 318.15 K
x1 = 0.0113 | 1.337 ± 0.0005 | 1.3325 ± 0.0005 | 1.3285 ± 0.0005 | 1.3246 ± 0.0005
x1 = 0.0235 | 1.3428 ± 0.0005 | 1.3381 ± 0.0005 | 1.3343 ± 0.0005 | 1.3305 ± 0.0005
x1 = 0.0366 | 1.3481 ± 0.0005 | 1.3435 ± 0.0005 | 1.3398 ± 0.0005 | 1.3365 ± 0.0005
x1 = 0.0509 | 1.3539 ± 0.0005 | 1.3488 ± 0.0005 | 1.3453 ± 0.0005 | 1.3419 ± 0.0005
x1 = 0.0845 | 1.364 ± 0.0005 | 1.3595 ± 0.0005 | 1.3562 ± 0.0005 | 1.3536 ± 0.0005
x1 = 0.1254 | 1.3729 ± 0.0005 | 1.369 ± 0.0005 | 1.3657 ± 0.0005 | 1.3629 ± 0.0005
x1 = 0.1771 | 1.3827 ± 0.0005 | 1.3788 ± 0.0005 | 1.3754 ± 0.0005 | 1.3726 ± 0.0005
x1 = 0.2441 | 1.3912 ± 0.0005 | 1.3877 ± 0.0005 | 1.3845 ± 0.0005 | 1.3813 ± 0.0005
x1 = 0.3338 | 1.3999 ± 0.0005 | 1.3966 ± 0.0005 | 1.3934 ± 0.0005 | 1.3904 ± 0.0005
x1 = 0.4626 | 1.4082 ± 0.0005 | 1.4052 ± 0.0005 | 1.4022 ± 0.0005 | 1.3993 ± 0.0005
x1 = 0.5482 | 1.4123 ± 0.0005 | 1.4093 ± 0.0005 | 1.4064 ± 0.0005 | 1.4036 ± 0.0005
x1 = 0.6589 | 1.4163 ± 0.0005 | 1.4135 ± 0.0005 | 1.4107 ± 0.0005 | 1.408 ± 0.0005
x1 = 0.8037 | 1.4204 ± 0.0005 | 1.4177 ± 0.0005 | 1.415 ± 0.0005 | 1.4124 ± 0.0005
x1 = 1 | 1.4243 ± 0.0005 | 1.4217 ± 0.0005 | 1.419 ± 0.0005 | 1.4164 ± 0.0005

CCn1cc[n+](C)c1.F[B-](F)(F)F [1-ethyl-3-methylimidazolium tetrafluoroborate] + CO
refractive index
Conditions | 288.15 K | 298.15 K | 308.15 K | 318.15 K
x1 = 0.0136 | 1.3368 ± 0.0005 | 1.3324 ± 0.0005 | 1.3286 ± 0.0005 | 1.3247 ± 0.0005
x1 = 0.0283 | 1.3419 ± 0.0005 | 1.3376 ± 0.0005 | 1.3337 ± 0.0005 | 1.33 ± 0.0005
x1 = 0.044 | 1.3466 ± 0.0005 | 1.3423 ± 0.0005 | 1.3389 ± 0.0005 | 1.3357 ± 0.0005
x1 = 0.0615 | 1.3515 ± 0.0005 | 1.3474 ± 0.0005 | 1.3439 ± 0.0005 | 1.3402 ± 0.0005
x1 = 0.101 | 1.3604 ± 0.0005 | 1.3566 ± 0.0005 | 1.353 ± 0.0005 | 1.3495 ± 0.0005
x1 = 0.1485 | 1.3697 ± 0.0005 | 1.3659 ± 0.0005 | 1.3627 ± 0.0005 | 1.3592 ± 0.0005
x1 = 0.2073 | 1.3785 ± 0.0005 | 1.3749 ± 0.0005 | 1.3715 ± 0.0005 | 1.3685 ± 0.0005
x1 = 0.2817 | 1.3865 ± 0.0005 | 1.383 ± 0.0005 | 1.38 ± 0.0005 | 1.3768 ± 0.0005
x1 = 0.379 | 1.3937 ± 0.0005 | 1.3905 ± 0.0005 | 1.3874 ± 0.0005 | 1.3845 ± 0.0005
x1 = 0.5111 | 1.4008 ± 0.0005 | 1.3978 ± 0.0005 | 1.3949 ± 0.0005 | 1.3922 ± 0.0005
x1 = 0.5959 | 1.404 ± 0.0006 | 1.4012 ± 0.0006 | 1.3985 ± 0.0006 | 1.3958 ± 0.0006
x1 = 0.7027 | 1.4075 ± 0.0006 | 1.4048 ± 0.0006 | 1.4022 ± 0.0006 | 1.3996 ± 0.0006
x1 = 0.8297 | 1.4109 ± 0.0006 | 1.4082 ± 0.0006 | 1.4056 ± 0.0006 | 1.4031 ± 0.0006
x1 = 1 | 1.4143 ± 0.0006 | 1.4118 ± 0.0006 | 1.4092 ± 0.0006 | 1.4067 ± 0.0006
